Measured values from ChEMBL document CHEMBL5226326, “Discovery of 1-Benzoyl 4-Phenoxypiperidines as Small-Molecule Inhibitors of the β-Catenin/B-Cell Lymphoma 9 Protein-Protein Interaction” (J Med Chem, 2021).

Biological target: T1, beta-catenin-B-cell lymphoma 9 protein complex (Homo sapiens, UniProt P35222)
T1 sequence (P35222 whole entry): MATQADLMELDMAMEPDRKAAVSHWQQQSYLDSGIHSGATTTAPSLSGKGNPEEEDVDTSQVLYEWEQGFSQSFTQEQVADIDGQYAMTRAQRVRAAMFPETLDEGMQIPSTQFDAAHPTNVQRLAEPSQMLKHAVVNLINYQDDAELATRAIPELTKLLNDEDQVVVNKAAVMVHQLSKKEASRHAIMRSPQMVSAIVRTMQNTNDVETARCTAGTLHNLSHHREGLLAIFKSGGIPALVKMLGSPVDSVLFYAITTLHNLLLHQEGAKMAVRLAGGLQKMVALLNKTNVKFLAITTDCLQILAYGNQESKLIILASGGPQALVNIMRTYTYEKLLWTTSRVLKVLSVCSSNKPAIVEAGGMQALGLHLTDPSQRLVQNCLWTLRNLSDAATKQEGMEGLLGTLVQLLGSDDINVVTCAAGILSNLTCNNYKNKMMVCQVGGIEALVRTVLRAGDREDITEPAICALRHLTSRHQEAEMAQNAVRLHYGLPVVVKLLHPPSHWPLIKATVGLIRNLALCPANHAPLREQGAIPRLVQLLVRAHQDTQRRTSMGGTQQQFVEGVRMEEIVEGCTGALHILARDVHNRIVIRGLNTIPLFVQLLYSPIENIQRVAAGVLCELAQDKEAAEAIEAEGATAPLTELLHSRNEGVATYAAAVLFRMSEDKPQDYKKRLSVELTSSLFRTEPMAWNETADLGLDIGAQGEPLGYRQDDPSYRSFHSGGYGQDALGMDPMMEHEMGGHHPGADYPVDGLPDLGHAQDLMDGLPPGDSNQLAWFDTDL
T1 sequence (O00512 whole entry): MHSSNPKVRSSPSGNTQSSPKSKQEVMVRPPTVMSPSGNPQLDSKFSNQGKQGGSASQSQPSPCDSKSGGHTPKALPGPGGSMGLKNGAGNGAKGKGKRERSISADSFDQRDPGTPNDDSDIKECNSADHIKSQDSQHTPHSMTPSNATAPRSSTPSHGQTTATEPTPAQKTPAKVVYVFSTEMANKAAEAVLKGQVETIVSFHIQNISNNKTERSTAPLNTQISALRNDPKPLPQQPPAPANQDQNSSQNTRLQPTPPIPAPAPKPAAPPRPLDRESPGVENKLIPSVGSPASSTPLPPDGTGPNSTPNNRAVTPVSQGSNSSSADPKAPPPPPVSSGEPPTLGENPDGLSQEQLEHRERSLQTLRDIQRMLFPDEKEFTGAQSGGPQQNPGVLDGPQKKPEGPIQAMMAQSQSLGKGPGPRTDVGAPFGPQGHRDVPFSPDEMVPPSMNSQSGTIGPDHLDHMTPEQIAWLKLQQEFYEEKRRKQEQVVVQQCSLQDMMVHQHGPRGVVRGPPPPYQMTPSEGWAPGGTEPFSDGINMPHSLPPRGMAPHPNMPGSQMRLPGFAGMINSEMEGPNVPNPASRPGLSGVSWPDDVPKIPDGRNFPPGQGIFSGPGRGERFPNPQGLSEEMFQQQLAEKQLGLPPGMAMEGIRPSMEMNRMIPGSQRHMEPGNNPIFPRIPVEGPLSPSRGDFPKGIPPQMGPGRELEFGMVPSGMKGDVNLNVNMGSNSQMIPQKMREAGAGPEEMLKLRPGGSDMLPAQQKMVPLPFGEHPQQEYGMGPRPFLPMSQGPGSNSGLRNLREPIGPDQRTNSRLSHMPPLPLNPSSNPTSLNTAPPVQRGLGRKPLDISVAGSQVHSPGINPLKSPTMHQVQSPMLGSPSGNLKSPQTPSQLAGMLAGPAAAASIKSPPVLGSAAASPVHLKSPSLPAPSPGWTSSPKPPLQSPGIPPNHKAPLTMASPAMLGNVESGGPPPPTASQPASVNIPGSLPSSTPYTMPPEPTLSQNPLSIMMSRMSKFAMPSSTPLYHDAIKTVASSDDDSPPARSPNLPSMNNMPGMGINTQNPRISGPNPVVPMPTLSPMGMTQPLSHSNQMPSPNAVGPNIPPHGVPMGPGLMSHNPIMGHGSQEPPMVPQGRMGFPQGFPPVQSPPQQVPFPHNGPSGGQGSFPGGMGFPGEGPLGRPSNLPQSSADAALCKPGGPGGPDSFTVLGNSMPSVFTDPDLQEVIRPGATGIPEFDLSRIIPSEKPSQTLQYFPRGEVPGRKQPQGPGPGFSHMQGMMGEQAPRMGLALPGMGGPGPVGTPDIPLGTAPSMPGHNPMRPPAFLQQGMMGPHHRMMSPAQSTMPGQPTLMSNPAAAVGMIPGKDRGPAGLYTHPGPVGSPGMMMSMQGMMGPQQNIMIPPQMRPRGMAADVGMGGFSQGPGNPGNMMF
Assay: Inhibition of full length beta-catenin (1 to 781 residues) (unknown origin) expressed in Escherichia coli BL21 (DE3)/N-terminal biotinylated human BCL9 HD2 (350 to 375 residues) protein-protein interaction assessed as inhibition constant incubated for 1 hr by Alphascreen assay

## CC(C)(C)C1CCC(c2cc(C(=O)N3CCC(Oc4cc(N5CCNCC5)ccc4C#N)CC3)ccc2O[C@H]2CCNC2)CC1.Cl.Cl (mixture of isomers; cis)
  Ki: 0.96 µM
